In brackets after ≈: the same amount, converted by molar mass. Where two headings read alike, the source gives them in different places.
What was measured:
[1] = test system: Fluoroquinolone Sensitive Strains; assay: In-vitro antimicrobial test, MIC by two-fold serial agar dilution (NCCLS): fluoroquinolone sensitive strains (Table 17); type: cell-based
Method: (§1) The test method was in accordance with the standard NCCLS protocol (Methods for Dilution Antimicrobial Susceptibility Tests for Bacteria that grow Aerobicially, Approved Standards, M7-A5, Fifth Edition, January 2000).
(§2) The antibacterial activities (minimum inhibitory concentration: MIC, mcg/ml) were determined by using the two-fold serial agar dilution method recommended by NCCLS. The media used for preculture and main culture were Tryptic Soya broth (Difco) and Mueller Hinton medium (Difco), respectively. The Mueller Hinton agar was supplemented with 5% sheep blood for streptococci. Overnight cultures were diluted with buffered saline (pH 7.2) to the final cell density of 5×10^6-10^7 CFU/ml, and each bacterial suspension was applied with a replicator (Denley's multipoint inoculator, UK) onto a series of Mueller-Hinton agar plates containing antibacterial agents at various concentrations. Final inoculum was approximately 10^4 CFU/spot. The plates were incubated for 18 hrs at 37° C. The MIC was defined as the lowest concentration of an antibacterial agent that inhibits the development of visible microbial growth on agar.

[2] = test system: V79 (Chinese Hamster Lung); assay: Cytotoxicity test (Alamar blue), V79 cells (Table 23); type: cell-based; conditions: minimum drug concentration inhibiting Alamar blue color change, 3 hrs drug exposure, then 96 hrs incubation
Method: (§3) Compounds were evaluated for their cytotoxic potential against two […] viz. […] Freshly grown cells were distributed in microtiter plates at a cell density of 10^5-10^6 cells/well and allowed to adhere and form monolayer by incubating the microtiter plate at 37° C. for 24 hrs. […] Following 3 hrs. of drug exposure, cells were washed with D-MEM and incubated further for 96 hrs. Cytotoxic effects of drugs were monitored through daily microscopic observation and by ascertaining the metabolic status through redox indicator Alamar blue. Healthy actively metabolising cells bring about colour change of Alamar blue from blue to pink within an overnight incubation. Cytotoxic drugs inhibit this reaction resulting into blue coloured wells. Minimum drug concentration inhibiting Alamar blue color change i.e. resulting into blue coloured wells for a given drug is considered cytotoxic concentration.

J 744 (mouse macrophage) = assay: Cytotoxicity test (Alamar blue), J 744 cells (Table 23); type: cell-based; conditions: minimum drug concentration inhibiting Alamar blue color change; 3 hrs drug exposure, then 96 hrs incubation; J 744 mouse macrophage cells
Method: as §3

[3] = test system: Fluoroquinolone-Resistant Strains; assay: In-vitro antimicrobial test, MIC by agar dilution (NCCLS): fluoroquinolone-resistant strains (Table 18); type: cell-based
Method: as §1, §2

[4] = Phototoxicity, oral dose and UVA exposure, mice; conditions: UVA 4 hours for 4 consecutive days, dose causing ear erythema and oedema
Method: The stock solutions for different doses were prepared freshly on the day of experimentation. Appropriate concentration of each dose was chosen to give a constant dosage volume of 0.3-0.4 ml/20 g body weight of mouse. The treated mice were exposed to UVA light source immediately after dosing for 4 hours and for 4 consecutive days. The mean light intensity in the UVA chamber was adjusted to 0.9-1.2 mW/cm^2. The total irradiation dose was approximately 18 Joules/cm^2/day. A phototoxic dose is one which causes ear erythema and oeadema.

[5] = Escherichia coli, ATCC25922, E. coli ATCC 25922, read-out: MIC, E. coli ATCC 25922
[6] = Staphylococcus aureus, ATCC 25923 / MSSA, MSSA ATCC 25923, read-out: MIC, MSSA ATCC 25923
[7] = Streptococcus pneumoniae, ATCC49619, S. pneumoniae ATCC 49619, read-out: MIC, S. pneumoniae ATCC 49619

SMILES | Cytotoxic concentration, J 744 Macrophage (J 744 (mouse macrophage)) [µg/mL] | MIC [1, 5] [µg/mL] | MIC [1, 6] [µg/mL] | MIC [1, 7] [µg/mL] | also measured
CCc1c(N2CCC(O)C(C)C2)c(F)cc2c(=O)c(C(=O)O)cn(C3CC3)c12 (mixture of isomers) [Compound 100, cis/trans-1-Cyclopropyl-6-fluoro-8-ethyl-7-(4-hydroxy-3-methyl-1-piperidinyl)-1,4-dihydro-4-oxo-quinoline-3-carboxylic acid] |  |  |  |  | MIC, E. coli ATCC 25922 [1]: 0.8 µg/mL; MIC, MSSA ATCC 25923 [1]: 0.1 µg/mL; MIC, S. pneumoniae ATCC 49619 [1]: 0.8 µg/mL
Cc1c(N2CCC(N)C(C)(C)C2)c(F)cc2c(=O)c(C(=O)O)cn(C3CC3)c12 (racemic) [Compound 91, (±)1-Cyclopropyl-6-fluoro-1,4-dihydro-8-methyl-7-(4-amino-3,3-dimethyl-1-piperidinyl)-4-oxo-quinoline-3-carboxylic acid] | 1000 |  |  |  | Cytotoxic concentration, V 79 CHL [2]: 750 µg/mL
Cc1c(N2CCC(N)C(C)(C)C2)c(F)cc2c(=O)c(C(=O)O)cn(C3CC3)c12 (racemic) [Compound 92, (±)-1-Cyclopropyl-6-fluoro-1,4-dihydro-8-methyl-7-(4-amino-3,3-dimethyl-1-piperidinyl)-4-oxo-quinoline-3-carboxylic acid] | >1000 |  |  |  | Cytotoxic concentration, V 79 CHL [2]: >1000 µg/mL; MIC, E. coli ATCC 25922 [1]: 0.05 µg/mL (≈ 0.129 µM); MIC, MSSA ATCC 25923 [1]: 0.025 µg/mL (≈ 0.0645 µM)
CC[C@@H]1CN(c2c(F)cc3c(=O)c(C(=O)O)cn(C4CC4)c3c2C)CC[C@H]1O (relative stereo) [Compound 88, cis/trans-1-Cyclopropyl-6-fluoro-8-methyl-7-(4-hydroxy-3-ethyl-1-piperidinyl)-1,4-dihydro-4-oxo-quinoline-3-carboxylic acid] |  |  |  |  | MIC, Cipro^R S. mitis 938 ([3]; Cipro^R S. mitis 938): 3.12 µg/mL (≈ 8.03 µM); MIC, Cipro^R S. sanguis 941 ([3]; Cipro^R S. sanguis 941): 3.12 µg/mL (≈ 8.03 µM); MIC, FQ^R S. pneumoniae 718 ([3]; FQ^R S. pneumoniae 718): 3.12 µg/mL (≈ 8.03 µM); MIC, MRSA 032 ([3]; MRSA 032): 0.8 µg/mL (≈ 2.06 µM); MIC, E. coli ATCC 25922 [1]: 0.4 µg/mL (≈ 1.03 µM); MIC, E. faecalis ATCC 29212 ([1]; E. faecalis ATCC 29212): 0.2 µg/mL (≈ 0.515 µM); MIC, MSSA ATCC 25923 [1]: 0.012 µg/mL (≈ 0.0309 µM); MIC, P. aeruginosa 27853 ([1]; P. aeruginosa 27853): 12.5 µg/mL (≈ 32.2 µM); MIC, S. pneumoniae ATCC 49619 [1]: 0.1 µg/mL (≈ 0.257 µM); MIC, S. sanguis ATCC 10556 ([1]; S. sanguis ATCC 10556 (Viridans Streptococci)): 0.2 µg/mL (≈ 0.515 µM)
Cc1c(N2CC[C@@H](N)[C@H](C)C2)c(F)cc2c(=O)c(C(=O)O)cn(C3CC3)c12 (relative stereo) [Compound 89, trans-1-Cyclopropyl-6-fluoro-1,4-dihydro-8-methyl-7-(4-amino-3-methyl-1-piperidinyl)-4-oxo-quinoline-3-carboxylic acid] | 1000 |  |  |  | Cytotoxic concentration, V 79 CHL [2]: 250 µg/mL
Cc1c(N2CC[C@H](N)[C@H](C)C2)c(F)cc2c(=O)c(C(=O)O)cn(C3CC3)c12 (relative stereo) [Compound 90, cis-1-Cyclopropyl-6-fluoro-1,4-dihydro-8-methyl-7-(4-amino-3-methyl-1-piperidinyl)-4-oxo-quinoline-3-carboxylic acid] | 1000 |  |  |  | Cytotoxic concentration, V 79 CHL [2]: 125 µg/mL
Cc1c(N2CC[C@H](N)[C@H](C)C2)c(F)c(N)c2c(=O)c(C(=O)O)cn(C3CC3)c12 (relative stereo) [Compound 111, cis-1-5-Amino-1-cyclopropyl-6-fluoro-1,4-dihydro-8-methyl-7-(4-amino-3-methyl-1-piperidinyl)-4-oxo-quinoline-3-carboxylic acid] |  |  |  |  | MIC, E. coli ATCC 25922 [1]: 1.56 µg/mL (≈ 4.02 µM); MIC, MSSA ATCC 25923 [1]: 0.8 µg/mL (≈ 2.06 µM)
Cc1c(N2CCC(N)C(C)(C)C2)c(F)cc2c(=O)c(C(=O)O)cn(C3CC3)c12 (single isomer, unassigned; (-)) [Compound 93, (−)-1-Cyclopropyl-6-fluoro-1,4-dihydro-8-methyl-7-(4-amino-3,3-dimethyl-1-piperidinyl)-4-oxo-quinoline-3-carboxylic acid] | 1000 |  |  |  | MIC ([3]; Staphylococcus aureus, MRSA, MRSA 032, read-out: MIC, MRSA 032): 0.4 µg/mL (≈ 1.03 µM); MIC ([3]; Streptococcus mitis, Cipro^R S. mitis 938, read-out: MIC, Cipro^R S. mitis 938): 0.8 µg/mL (≈ 2.06 µM); MIC ([3]; Streptococcus pneumoniae, FQ^R S. pneumoniae 718, read-out: MIC, FQ^R S. pneumoniae 718): 0.4 µg/mL (≈ 1.03 µM); Cytotoxic concentration, V 79 CHL [2]: 250 µg/mL; MIC ([1]; Pseudomonas aeruginosa, P. aeruginosa 27853, read-out: MIC, P. aeruginosa 27853): 1.56 µg/mL (≈ 4.03 µM)
COc1c(N2CCC(N)C(C)(C)C2)c(F)cc2c(=O)c(C(=O)O)cn(-c3ccc(F)cc3F)c12 (stereo not drawn) [Compound 17, 1-(2,4-Difluorophenyl)-6-fluoro-1,4-dihydro-8-methoxy-7-(4-amino-3,3-dimethyl-1-piperidinyl)-4-oxo-quinoline-3-carboxylic acid] |  | 0.4 (≈ 0.841 µM) | 0.4 (≈ 0.841 µM) | 1.56 (≈ 3.28 µM) | 
CCNC1C(C)CN(c2c(F)cc3c(=O)c(C(=O)O)cn(C4CC4)c3c2OC)CC1C (stereo not drawn) [Compound 39, 1-Cyclopropyl-6-fluoro-1,4-dihydro-8-methoxy-7-(4-ethylamino-3,5-dimethyl-1-piperidinyl)-4-oxo-quinoline-3-carboxylic acid] |  | 6.25 (≈ 14.5 µM) | 1.56 (≈ 3.62 µM) | > 6.25 | 
COc1c(N2CCC(NC(C)=O)C(C)(C)C2)c(F)c(N)c2c(=O)c(C(=O)O)cn(C3CC3)c12 (stereo not drawn) [Compound 61, 5-Amino-1-cyclopropyl-6-fluoro-1,4-dihydro-8-methoxy-7-(4-acetylamino-3,3-dimethyl-1-piperidinyl)-4-oxo-quinoline-3-carboxylic acid] |  | 0.4 (≈ 0.869 µM) | 0.05 (≈ 0.109 µM) | 0.2 (≈ 0.434 µM) | 
CCNC1CCN(c2c(F)c(N)c3c(=O)c(C(=O)O)cn(C4CC4)c3c2OC)CC1(C)C (stereo not drawn) [Compound 66, 5-Amino-1-cyclopropyl-6-fluoro-1,4-dihydro-8-methoxy-7-(4-ethylamino-3,3-dimethyl-1-piperidinyl)-4-oxo-quinoline-3-carboxylic acid] |  | 0.2 (≈ 0.448 µM) | 0.05 (≈ 0.112 µM) | 0.2 (≈ 0.448 µM) | 
Cc1c(N2CCC(O)CC2)c(F)cc2c(=O)c(C(=O)O)cn(C3CC3)c12 [Compound 83, 1-Cyclopropyl-6-fluoro-8-methyl-7-(4-hydroxy-1-piperidinyl)-1,4-dihydro-4-oxo-quinoline-3-carboxylic acid] |  | 0.05 (≈ 0.139 µM) | 0.1 (≈ 0.277 µM) |  | 
Cc1c(N2CCC(N)C(C)(C)C2)c(F)cc2c(=O)c(C(=O)O)cn(C3CC3)c12 (stereo not drawn) [Compound 94, 1-Cyclopropyl-6-fluoro-1,4-dihydro 8-methyl-7-(4-amino-3,3-dimethyl-1-piperidinyl)-4-oxo-quinoline-3-carboxylic acid] |  |  |  | 0.05 (≈ 0.129 µM) | 
COc1c(N2CCC(O)C(C)C2)c(F)c(N)c2c(=O)c(C(=O)O)cn(C3CC3)c12 (stereo not drawn) [Compound 116, 5-Amino-1-cyclopropyl-6-fluoro-1,4-dihydro-8-methoxy-7-(4-hydroxy-3-methyl-1-piperidinyl)-4-oxo-quinoline-3-carboxylic acid] |  | 0.4 (≈ 0.987 µM) | 0.025 (≈ 0.0617 µM) | 0.2 (≈ 0.493 µM) | 
COc1c(N2CCC(O)C(C)(C)C2)c(F)c(N)c2c(=O)c(C(=O)O)cn(C3CC3)c12 (stereo not drawn) [Compound 125, 5-Amino-1-cyclopropyl-6-fluoro-1,4-dihydro-8-methoxy-7-(4-hydroxy-3,3-dimethyl-1-piperidinyl)-4-oxo-quinoline-3-carboxylic acid] |  | 1.56 (≈ 3.72 µM) | 0.025 (≈ 0.0596 µM) | 0.4 (≈ 0.954 µM) | 
COc1c(N2CC(C)C(O)C(C)C2)c(F)c(N)c2c(=O)c(C(=O)O)cn(C3CC3)c12 (stereo not drawn) [Compound 127, 5-Amino-1-cyclopropyl-6-fluoro-1,4-dihydro-8-methoxy-7-(4-hydroxy-3,5-dimethyl-1-piperidinyl)-4-oxo-quinoline-3-carboxylic acid] |  | 0.4 (≈ 0.954 µM) | < 0.006 | 0.1 (≈ 0.238 µM) | 
N[C@@H]1[C@H]2CN(c3nc4c(cc3F)c(=O)c(C(=O)O)cn4-c3ccc(F)cc3F)C[C@@H]12 [Trovafloxacin, reference compound] | 500 |  |  |  | 
C[C@@H]1CN(c2c(F)c(N)c3c(=O)c(C(=O)O)cn(C4CC4)c3c2F)C[C@H](C)N1 [sparfloxacin, reference compound] |  |  |  |  | phototoxic dose [4]: 25 mg/kg
